Data reported in patent publication US20090142735A1, “Bacterial intraoral disease treatment composition, washing treatment solution, hemostatic treatment solution, and bacterial intraoral disease treatment method” (priority 2005, published 2009).

Assay: Test Example 1: penetrability of the base (migration of food red from the drug application seat)
Type: physicochemical
Settings: 100% humidity, root embedded in gypsum block
Source text: FIG. 7 depicts a cross-sectional view of a sample 50 according to the present test example. First, the mandibular first premolar affected with apical periodontitis was drilled with a #70 […] to enlarge the root canal and further the root canal 51 was filled using a gutta-percha point and a sealer, and by pressing them sideways. […] At the bottom of this drug application seat 52, two small pieces 53 (about 1.0 mm in diameter) of each base shown in Table 1 added with food red were loaded. Furthermore, cotton ball (not shown) was placed so as to cover these small pieces 53, and “Caviton (registered trade mark)” (G C Co., Ltd.) was layered over this cotton ball to form the covering layer 54, thereby preparing the sample 50. After the root portion of each sample 50 was embedded in an ordinary gypsum block 55, it was stored under 100% humidity. Migration distances of food red from the drug application seat for storing times of 24 hours and 48 hours were measured to assess the penetrability of the base contained in each sample. In this case, the migration distance was determined as the longest distance in the direction of depth (in the direction of the arrow D in FIG. 7) of the area reached by coloring due to food red when the sample 50 was observed from outside.

SMILES	Migration distance of food red from drug application seat (depth direction) (storing time 24 hours) [mm]	Migration distance of food red from drug application seat (depth direction) (storing time 48 hours) [mm]
CC(O)CO (stereo not drawn) [Sample 2, Propylene glycol]	2.0	3.5
OCC(O)CO [Sample 6, Glycerin]	5.0	7.0
O [Sample 1, Water]	2.0	4.0
